Activity calls are given as the source filed them. The rule behind the calls is not given here.
Assays:
[1] = Drug metabolism in mouse plasma assessed as (4bR,9S)-1-(hydroxymethyl)-3,7-dimethoxy-11-methyl-6-oxo-6,8a,9,10-tetrahydro-5H-9,4b-(epiminoethano)phenanthren-4-yl cinnamate metabolite formation administered orally by HRMS analysis; type: ADME; details: po
[2] = Stability in mouse kidney assessed as compound remaining at 50 mg/kg, po measured for 0.083 to 8 hrs by HPLC analysis; type: ADME, organism-based; details: in vivo, time 0.083-8 hrs
[3] = Drug metabolism in rat plasma assessed as hydrolyzation/double hydroxylation-mediated metabolite formation at 50 mg/kg, po measured for 24 hrs by HRMS analysis; type: ADME, organism-based; details: in vivo
[4] = Drug metabolism in mouse blood assessed as (4bR,9S)-1-(hydroxymethyl)-3,7-dimethoxy-11-methyl-6-oxo-6,8a,9,10-tetrahydro-5H-9,4b-(epiminoethano)phenanthren-4-yl cinnamate metabolite formation at 50 mg/kg, po measured for 0.083 to 8 hrs by HPLC analysis; type: ADME, organism-based; details: in vivo, time 0.083-8 hrs
Mus musculus [5] = experiment: Anti-aplastic anemia activity in C57BL/6J mouse model of immune-mediated bone marrow failure assessed as reduction in IFN-gamma level at 5 to 15 mg/kg, IG qd treated for 12 days by ELISA; type: functional, organism-based; details: dose 5-15 mg/kg, time 12.0 day
CTLL-2 [6] = experiment: Induction of ferroptosis in mouse CTLL-2 cells assessed as increase in extracellular Ca2+ influx at 10 uM incubated for 24 hrs in presence of EDTA by Fluo-4 AM dye based analysis; type: functional, cell-based
Mus musculus [7] = experiment: Anti-aplastic anemia activity in C57BL/6J mouse model of immune-mediated bone marrow failure assessed as increase in animal survival at 5 to 15 mg/kg, IG qd treated for 21 days; type: functional, organism-based; details: dose 5-15 mg/kg, time 21.0 day
NRK-52E = experiment: Cytotoxicity against rat NRK-52E cells assessed as inhibition of cell viability incubated for 72 hrs by CCK8 assay; type: functional, cell-based
CTLL-2 [8] = experiment: Induction of ferroptosis in mouse CTLL-2 cells assessed as increase in ROS level at 10 uM incubated for 45 mins in presence of CM4620; type: functional, cell-based
CTLL-2 [9] = experiment: Induction of ferroptosis in mouse CTLL-2 cells assessed as increase in ROS level incubated for 16 hrs by DCFH-DA staining based flow cytometry; type: functional, cell-based; details: dose 7.5-30 µM
[10] = AUC in Sprague-Dawley rat at 50 mg/kg, po measured for 0.083 to 24 hrs by HPLC analysis; type: ADME, organism-based; details: in vivo, time 0.083-24 hrs
CTLL-2 [11] = experiment: Induction of ferroptosis in IL-2-stimulated mouse CTLL-2 cells assessed as increase in ROS level at 30 uM incubated for 6 hrs followed by Fer-1 addition measured after 10 hrs by DCFH-DA staining based flow cytometry; type: functional, cell-based; details: time 16.0 hrs
Mus musculus [12] = experiment: Anti-aplastic anemia activity in BALB/c mouse model of immune-mediated bone marrow failure assessed as increase in body weight at 10 mg/kg, po treated for 14 days; type: functional, organism-based; details: time 14.0 day
Mus musculus [13] = experiment: Anti-aplastic anemia activity in BALB/c mouse model of immune-mediated bone marrow failure assessed as increase in hemoglobin level at 10 mg/kg, po treated for 14 days; type: functional, organism-based; details: time 14.0 day
CD8-positive T cell [14] = experiment: Inhibition of CD3/CD28-activated CD8-positive T cell activation in BALB/c mouse lymph nodes assessed as decrease in cluster formation of cells at 1 to 10 uM incubated for 72 hrs by microscopy; type: functional, cell-based; details: Lymph node, dose 1-10 µM
Mus musculus [15] = experiment: Anti-aplastic anemia activity in C57BL/6J mouse model of immune-mediated bone marrow failure assessed as reduction in cytotoxic T lymphocytes hyperactivation at 5 to 15 mg/kg, IG qd treated for 12 days; type: functional, organism-based; details: dose 5-15 mg/kg, time 12.0 day
CD8-positive T cell [16] = experiment: Inhibition of CD3/CD28-activated CD8-positive T cell activation in BALB/c mouse lymph nodes assessed as decrease in IFN-gamma level at 1 to 10 uM incubated for 72 hrs by ELISA; type: functional, tissue-based; details: Lymph node, dose 1-10 µM
CTLL-2 [17] = experiment: Induction of ferroptosis in IL-2-stimulated mouse CTLL-2 cells assessed as increase in intracellular lipid peroxidation level at 30 uM incubated for 6 hrs followed by Fer-1 addition measured after 10 hrs by flow cytometry; type: functional, cell-based; details: time 16.0 hrs

SMILES	Drug metabolism [1]	Stability [2]	Drug metabolism [3]	Drug metabolism [4]	Activity (Mus musculus [5])	Activity (CTLL-2 [6])	Activity (Mus musculus [7])	IC50 (NRK-52E) [µM]	Activity (CTLL-2 [8])	Activity (CTLL-2 [9])	AUC [10] [ng·h/mL]	Activity (CTLL-2 [11])	Activity (Mus musculus [12])	Activity (Mus musculus [13])	inhibition (CD8-positive T cell [14])	Activity (Mus musculus [15])	inhibition (CD8-positive T cell [16])	Activity (CTLL-2 [17])
COC1=C[C@@H]2[C@@H]3Cc4c(COC(=O)/C=C/c5ccccc5)cc(OC)c(OC(=O)/C=C/c5ccccc5)c4[C@]2(CCN3C)CC1=O	metabolite_detected	Unstable	metabolite_detected	metabolite_detected	–	–	–	–	–	–	–	–	–	–	–	–	–	–
COC1=C[C@@H]2[C@@H]3Cc4c(CO)cc(OC)c(OC(=O)/C=C/c5ccccc5)c4[C@]2(CCN3C)CC1=O	–	–	–	–	Active	Active	Active; Improvement Observed During Early Stages Of Bone Marrow Failure	705	inactive	Dose-dependent-effect	15400	inactive	Active	Active	Active	Active	Active	inactive

Reference: ChEMBL document CHEMBL6177973, “A Novel Compound 3a-M1, from Metabolites of Sinomenine Derivative 3a, Exerts Potent Anti-Aplastic Anemia Activity via IP3R/ORAI-Mediated CTL Ferroptosis” (J Med Chem, 2025)
